Results: patent publication US20240024324A1, “KINASE INHIBITOR COMBINATIONS FOR CANCER TREATMENT” (Merck Patent GmbH, priority 2020, published 2024)

Legend:
GSC11 [1] = assay: GSC lines: sensitivity in vitro (IC50); assay type: cell-based; details: GSC11 line in vitro
Method: (§1) FIG. 1: In vitro analyses in GSC lines. (A) Western blot analysis of protein expression; (B) IC50 of M2698; (C) IC50 of pimasertib; and (D) apoptotic GSC11, GSC7-2, and GSC17 cells after treatment with M2698, pimasertib, or M2698+pimasertib combination. Single agents were tested at their IC50; half the IC50 of each compound was used for the combination.
(§2) All GSC lines expressed Akt. Relatively high pAkt expression in GSC17, GSC7-2, GSC231, GSC11, GSC20, GSC6-27, and GSC8-11 lines compared with GSC272 and GSC267 (FIG. 1A).

GSC17 [2] = assay: GSC lines: sensitivity in vitro (IC50); assay type: cell-based; details: GSC17 line in vitro
Method: as §1, §2

GSC20 [3] = assay: GSC lines: sensitivity in vitro (IC50); assay type: cell-based; details: GSC20 line
Method: as §1, §2

GSC231 [4] = assay: GSC lines: sensitivity in vitro (IC50); assay type: cell-based; details: GSC231 line in vitro
Method: as §1, §2

GSC6-27 [5] = assay: GSC lines: sensitivity in vitro (IC50); assay type: cell-based; details: GSC6-27 line in vitro
Method: as §1, §2

GSC7-2 [6] = assay: GSC lines: sensitivity in vitro (IC50); assay type: cell-based; details: GSC7-2 line in vitro
Method: as §1, §2

GSC8-11 = assay: GSC lines: sensitivity in vitro (IC50); assay type: cell-based; details: GSC8-11 line in vitro
Method: as §1, §2

GSC11 [7] = assay: Induction of apoptosis in GSC lines in vitro; assay type: cell-based
Method: (§3) FIG. 1: In vitro analyses in GSC lines. (A) Western blot analysis of protein expression; (B) IC50 of M2698; (C) IC50 of pimasertib; and (D) apoptotic GSC11, GSC7-2, and GSC17 cells after treatment with M2698, pimasertib, or M2698+pimasertib combination. […]
(§4) Induction of apoptosis by M2698, pimasertib, and the combination was measured in three of five GSC lines that were sensitive to M2698 in vitro.

GSC17 [8] = assay: Induction of apoptosis in GSC lines in vitro; assay type: cell-based
Method: as §3, §4

GSC7-2 [9] = assay: Induction of apoptosis in GSC lines in vitro; assay type: cell-based
Method: as §3, §4

GSC11 [10] = assay: Orthotopic GSC xenograft model; assay type: in vivo, mice
Method: (§5) The in vivo effects of M2698 and pimasertib, alone and in combination, were assessed in the GSC models after orthotopic implantation into mice. Treatment duration and time of euthanasia post-implantation was 5-10 weeks. Endpoints were expression of PD markers pS6 and pERK, proliferation marker Ki67, apoptosis as measured by TUNEL, tumor volume and survival.

GSC17 [11] = assay: Orthotopic GSC xenograft model; assay type: in vivo, mice
Method: as §5

GSC20 [12] = assay: Orthotopic GSC xenograft model; assay type: in vivo, mice
Method: as §5

GSC231 [13] = assay: Orthotopic GSC xenograft model; assay type: in vivo, mice
Method: as §5

GSC272 = assay: Orthotopic GSC xenograft model; assay type: in vivo, mice
Method: as §5

GSC6-27 [14] = assay: Orthotopic GSC xenograft model; assay type: in vivo, mice
Method: as §5

GSC7-2 [15] = assay: Orthotopic GSC xenograft model; assay type: in vivo, mice
Method: as §5

[16] = tested on: Non-Small Lung Cancer (NSCLC) Brain Metastases PDX; assay: PDX models of NSCLC brain metastases; assay type: in vivo
[17] = tested on: Her2+/HR− Breast Cancer PDX; assay: PDX models of Her2+/HR- breast cancer; assay type: in vivo
[18] = tested on: human cholangiocarcinoma cancer PDX; assay: PDX models of cholangiocarcinoma; assay type: in vivo, mice; details: 20 mg/kg each agent QD PO
Text: The objective of this experiment was to evaluate the antitumor activity of M2698 alone and in combination with Pimasertib in a panel of 13 Patient-Derived Xenograft models representing human cholangiocarcinoma cancer derived from Chinese patients in immune-deficient mice.
Vehicle: 0.5% Methocel/0.25% Tween20 in Milli-Q Water. Tumors from three untreated mice were collected as satellite samples when reached a tumor volume between 300-500 mm3.

Colorectal Cancer PDX = assay: 75 PDX models of colorectal cancer; assay type: in vivo; details: CRC PDX; M2698 25 mg/kg po qd, Pimasertib 20 mg/kg po qd, Cetuximab 20 mg/kg ip q2w
Text: Of the 75 models, 25 were wild type, 25 KRas mutant, and 25 BRaf mutant.

SCCHN PDX = assay: 38 PDX models of SCCHN, 1+1 screen; assay type: in vivo, mouse; details: 38 models, M2698 25 mg/kg PO QDx28, Cetuximab 30 mg/kg IP 2wklyx4
Method: 46 SCCHN PDX models were run in a 1+1 scheme (one mouse per treatment group). […] With the adjustment to the cancellation, 38 models were completed. […] After implantation, treatments began when average tumor volume reached ˜200 mm^3 for each model. Tumor volumes were measured for each model until the control tumor reached ˜1200 mm^3 at which time all animals for that model were euthanized.

p70S6K = p70S6K (Homo sapiens, UniProt P23443); details: variety of cell-based assays; cited from earlier work
Sequence of p70S6K (P23443 whole entry): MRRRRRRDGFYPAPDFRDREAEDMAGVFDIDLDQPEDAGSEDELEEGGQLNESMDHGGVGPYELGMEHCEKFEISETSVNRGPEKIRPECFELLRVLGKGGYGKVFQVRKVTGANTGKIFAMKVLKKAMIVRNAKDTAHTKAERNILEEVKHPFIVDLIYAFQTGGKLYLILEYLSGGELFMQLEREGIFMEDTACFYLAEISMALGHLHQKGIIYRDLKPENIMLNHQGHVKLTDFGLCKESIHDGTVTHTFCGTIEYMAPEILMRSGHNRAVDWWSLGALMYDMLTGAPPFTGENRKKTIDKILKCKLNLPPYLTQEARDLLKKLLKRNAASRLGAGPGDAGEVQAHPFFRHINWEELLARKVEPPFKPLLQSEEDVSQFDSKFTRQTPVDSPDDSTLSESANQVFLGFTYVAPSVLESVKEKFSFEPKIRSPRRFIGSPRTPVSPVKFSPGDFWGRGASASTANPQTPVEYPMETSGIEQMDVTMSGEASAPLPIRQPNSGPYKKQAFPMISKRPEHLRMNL

Akt = details: variety of cell-based assays; cited from earlier work
cancer cell lines = details: broad panel of cancer cell lines; cited from earlier work
[19] = in vivo; cited from earlier work
human GBM = details: orthotopically implanted models of human GBM; cited from earlier work

Structure (SMILES): NC(=O)c1cccc2c(N[C@H](CN3CCC3)c3ccc(Cl)c(C(F)(F)F)c3)ncnc12 [M2698, 4-[(S)-2-Azetidin-1-yl-1-(4-chloro-3-trifluoromethyl-phenyl)-ethylamino]-quinazoline-8-carboxylic acid amide]
- IC50 (GSC11 [1]): < 2 µM
- IC50 (GSC17 [2]): < 2 µM
- sensitivity in vitro (GSC20 [3]): insensitivity
- IC50 (GSC231 [4]): < 2 µM
- IC50 (GSC6-27 [5]): < 2 µM
- IC50 (GSC7-2 [6]): < 2 µM
- IC50 (GSC8-11): < 2 µM
- apoptotic percentage (GSC11 [7]; GSC11, monotherapy at 2×IC50): 62%
- apoptotic percentage (GSC11 [7]; GSC11, monotherapy at the IC50): 56%
- apoptotic percentage (GSC17 [8]; GSC17, monotherapy at 2×IC50): 12%
- apoptotic percentage (GSC17 [8]; GSC17, monotherapy at the IC50): 11%
- apoptotic percentage (GSC7-2 [9]; GSC7-2, monotherapy at 2×IC50): 17%
- apoptotic percentage (GSC7-2 [9]; GSC7-2, monotherapy at the IC50): 13%
- pERK expression in orthotopic tumor (GSC11 [10]; GSC11, PD marker): reduced pERK
- pS6 expression in orthotopic tumor (GSC11 [10]; GSC11, PD marker): significantly reduced pS6
- tumor volume / tumor growth (GSC11 [10]; GSC11 orthotopic, vs vehicle): had a trend to do so
- pERK expression in orthotopic tumor (GSC17 [11]; GSC17, PD marker): reduced pERK
- pS6 expression in orthotopic tumor (GSC17 [11]; GSC17, PD marker): significantly reduced pS6
- tumor volume / tumor growth (GSC17 [11]; GSC17 orthotopic, vs vehicle): significantly inhibited tumor growth
- proliferation (Ki67 by immunohistochemistry) (GSC17 [11]; GSC17 tumor sections, compared to vehicle): significantly reduced proliferation
- pS6 expression in orthotopic tumor (GSC20 [12]; GSC20, PD marker): lack of significant response
- tumor volume / tumor growth (GSC20 [12]; GSC20 orthotopic, vs vehicle): had not responded
- pERK expression in orthotopic tumor (GSC231 [13]; GSC231, PD marker): reduced pERK
- pS6 expression in orthotopic tumor (GSC231 [13]; GSC231, PD marker): significantly reduced pS6
- median survival (GSC231 [13]; GSC231 orthotopic, vs vehicle): prolonged survival
- tumor volume / tumor growth (GSC231 [13]; GSC231 orthotopic, vs vehicle): significantly inhibited tumor growth
- pERK expression in orthotopic tumor (GSC272; GSC272, PD marker): reduced pERK
- pS6 expression in orthotopic tumor (GSC272; GSC272, PD marker): significantly reduced pS6
- median survival (GSC272; GSC272 orthotopic, vs vehicle): prolonged survival
- tumor volume / tumor growth (GSC272; GSC272 orthotopic, vs vehicle): significantly inhibited tumor growth
- pERK expression in orthotopic tumor (GSC6-27 [14]; GSC6-27, PD marker): reduced pERK
- pS6 expression in orthotopic tumor (GSC6-27 [14]; GSC6-27, PD marker): significantly reduced pS6
- tumor volume / tumor growth (GSC6-27 [14]; GSC6-27 orthotopic, vs vehicle): significantly inhibited tumor growth
- pERK expression in orthotopic tumor (GSC7-2 [15]; GSC7-2, PD marker): reduced pERK
- pS6 expression in orthotopic tumor (GSC7-2 [15]; GSC7-2, PD marker): significantly reduced pS6
- tumor volume / tumor growth (GSC7-2 [15]; GSC7-2 orthotopic, vs vehicle): significantly inhibited tumor growth
- proliferation (Ki67 by immunohistochemistry) (GSC7-2 [15]; GSC7-2 tumor sections, compared to vehicle): significantly reduced proliferation
- number of apoptotic cells/field (GSC7-2 [15]; GSC7-2 xenografts, after 10 weeks): 52.17±25.20 cells/field
- apoptosis in xenografts vs control (GSC7-2 [15]; GSC7-2 xenografts, at 7.5 weeks): Neither M2698, pimasertib, nor combination treatment significantly affected apoptosis
- tumor control rate (TCR) [16]: 5%
- tumor volume over the duration of the experiment [17]: stasis of the tumor volume
- tumor stasis, number of tumor samples [18]: 2/12
- tumor stasis, share of tumor samples [18]: 17%
- tumor control rate (TCR) (Colorectal Cancer PDX): 15%
- tumor control rate (TCR), models controlled/models (Colorectal Cancer PDX): 11/74
- Models with an Overall Response (“RECIST”) (SCCHN PDX): 7/38
- Partial response (number of models) (SCCHN PDX): 0
- Tumor Progression (number of models) (SCCHN PDX): 31
- Tumor Stasis (number of models) (SCCHN PDX): 7
- tumor control rate (TCR) (SCCHN PDX): 18%
- inhibition of p70S6K (p70S6K): highly potent
- inhibition of Akt (Akt): highly potent
- anti-tumor activity (cancer cell lines): potent anti-tumor activity
- blood-brain barrier penetration [19]: crosses the blood-brain barrier
- survival (human GBM): prolongs survival
- tumor growth (human GBM): reduces tumor growth
